“Also recorded” adds a separate entry of the source. Where two headings read alike, the source gives them in different places.
Columns and labels:
Type in all cases: cell-based
HaCaT-Keratinozyten [1] = assay: Patch-clamp recording of the membrane potential (Vm) of HaCaT keratinocytes; details: for Depolarisierung auf ein Plateau während der Behandlung mit ATP: other K+ channel blockers, compared with ChTx and Clotrimazol
Procedure: Um einen Ionenkanal zu identifizieren, der wesentlich bei der Signaltransduktion wundheilungsspezifischer Signale beteiligt ist, wurden HaCaT-Zellen elektrophysiologisch untersucht. Die Anzucht der HaCaT-Keratinozyten erfolgte in DEM mit 10% FRS (Gibco BRL), den Antibiotika (Penicillin/Streptomycin 100 U/ml) zugesetzt worden war. Die Ca^2+-Endkonzentration betrug 1,8 mM. Die Zellen wurden inkubiert bis eine konfluente Zellkultur entstanden war; anschließend wurde das Kulturmedium durch "Standard Bath Solution" (SBS; 130 mM NaCl, 3 mM KCl; 2 mM CaCl2; 2 mM MgCl2; 25 mM HEPES/NaHEPES; 10 mM D-Glukose; pH 7,4) ersetzt und die Schalen an einem inversen Mikroskop (Axiovert, Zeiss) untersucht. Die "Patch"-Pipetten wurden aus Borosilikatröhrchen an einer horizontalen Ausziehvorrichtung (DMZ, Zeitz) nach dem zweistufigen Ausziehverfahren hergestellt. Die Pipetten wurden anschließend mit einer Lösung, die 135 mM Kaliumglukonat, 10 mM KCl, 1,6 mM Na2HPO4, 0,73 mM CaCl2, 1,03 mM MgCl2, 1 mM EGTA, 14 mM HEPES/NaHEPES und […] Nystatin; pH 7,2 enthielt, gefüllt (Ca^2+-Aktivität in der Lösung= 10^-7 M). Der Widerstand dieser "Patch"-Pipetten betrug […] im Bad. Nachdem eine Versiegelung im GΩ-Bereich hergestellt wurde (typischerweise 1,5-2 GΩ) wurde der Verstärker auf Strom-Klemm Modus umgestellt. […] Die elektrophysiologischen Signale wurden mittels eines Axopatch 200 Verstärkers in Verbindung mit einem TL-1 Labmaster Interface und AXOTAPE Software (Axon Instruments) aufgenommen, verstärkt und digitalisiert. Die statistische Auswertung (ein-Weg ANOVA mit Bonferri post-test Vergleich) wurde mit Graphpad prism 2.0 durchgeführt.
Bei Experimenten, bei denen die intrazelluläre Ca^2+-Konzentration durch Blitzphotolyse von "caged IP3" (Calbiochem) erhöht wurde, wurde das "Patch-Clamp Recording" in der Ganzzell-Konfiguration durchgeführt, wobei eine Pipettenlösung enthaltend 120 mM Kaliumglukonat, 20 mM KCl, 1 mM MgCl2, 10 mM HEPES/NaHEPES, 2 mM Na2ATP, 0,3 mM NaGTP (pH 7,2) und 10-100 µM "caged IP3" verwendet wurde. Nach 5-7 min Ganzzell-Aufzeichnung wurde IP3 durch einen UV-Lichtblitz freigesetzt, der durch eine Xenon-Bogen-Lampe (75 W; Anregungsfilter: 330 ± 40 nm), die mit dem Epifluoreszenzport des Mikroskops verbunden war, generiert wurde. Der UV-Lichtstrahl wurde durch das 40-fach Phasenkontrastobjektiv auf die Keratinozyten fokussiert. Die Dauer des Blitzes (1 s) wurde durch einen Uniblitz "Shutter" (Vincent Assoc.) eingestellt.
Bei Experimenten, bei denen die gesamte Lösung, in der die Zellen inkubiert wurden ausgewechselt wurde, wurde ein konischer Plexiglaseinsatz mit mehrfachen Einflußleitungen und einer Ausflußleitung in die Kulturschale eingesetzt, um das Volumen der Ableitkammer auf 1 ml zu reduzieren. Der Zufluß von Flüssigkeit war Schwerkraft-abhängig und wurde durch magnetische Ventile kontrolliert. Der Ausfluß wurde durch das Anlegen eines negativen Drucks mittels einer Vakuumpumpe bewirkt. Die Zugabe von Substanzen erfolgte unter visueller Beobachtung direkt auf die zu untersuchenden Keratinozyten mittels eines ferngesteuerten, magnetgesteuerten Y-Rohrsystem (Durchmesser des Ausflußröhrchens: 100 µm).
Die elektrophysiologischen Ableitungen mittels perforierten "Patches" wurden an HaCaT-Zellen durchgeführt, die zu einem konfluenten Monolayer gewachsen waren.

HaCaT-Zellen = assay: Anti-K10 immunostaining of HaCaT cells (differentiation); details: 1 mM 1-EBIO, 3 days, compared with control cells without 1-EBIO
Procedure: Dazu wurden proliferierende subkonfluente Zellen, Zellen, die gerade Konfluenz erreicht hatten, und ruhende Zellen (4 Tage nach Konfluenz) untersucht. Die Aktivität dieser Keratinozyten wurde anhand der differenzierungsspezifischen Keratin-10-Expression bestimmt. Dazu wurden die Zellen in eiskaltem PBS gewaschen und mit Aceton/Methanol (1:1) 20 min bei -20°C fixiert. Endogene Peroxidasen wurden mit 1 % H2O2 bei Raumtemperatur blockiert. Nachdem die unspezifischen Bindungsstellen mit 3% BSA in PBS abgesättigt worden waren, wurden die Zellen über Nacht in einer 1:500 Verdünnung des Maus-anti-K10 Antikörpers (DAKO) in 3% BSA in PBS bei 4°C inkubiert und anschließend drei Mal mit PBS und einmal mit 3% BSA in PBS gewaschen. Nach 2 h Inkubation mit einem Peroxidase-gekoppelten anti-Maus Antikörper bei Raumtemperatur wurden die Zellen dreimal mit PBS und einmal mit ddH2O gewaschen. Anschließend wurden die Zellen mit dem Peroxidase Substrat-Kit und 3-Amino-9-ethylcarbazol als chromogenes Substrat (Vector Laboratories) gefärbt. Während die proliferierenden Zellen und die Zellen, die gerade Konfluenz erreicht hatten, keine Färbung aufwiesen, zeigte es sich, daß ein Großteil der postkonfluenten Zellen gefärbt war (Figur 3). […]

HaCaT Zellen [2] = assay: Immunoblot of keratinocyte differentiation markers Involucrin, Keratin 1 and Keratin 10; details: 1, 100, 1000 µM; 4 days; control 1% DMSO
From the text: Dazu wurden in einer 6-"Well"- Platte 5x10^5 HaCaT Zellen pro "Well" in Medium angezogen. Am nächsten Tag wurde das Medium gewechselt auf Medium, das verschiedene Konzentrationen an 1-EBIO bzw. […] Als Lösungsmittelkontrolle wurde 1% DMSO (Spur "C") in Medium benutzt. Die Zellen wurden 4 Tage lang inkubiert, wobei das Medium täglich ersetzt wurde. Nach 4 Tagen wurden die Proteinkonzentration in den Zelllysaten bestimmt (BCA Assay, Pierce). Gleiche Proteinmengen aus den verschiedenen Lysaten wurden anschliessend mittels Immunoblot gegen die Keratinozytendifferenzierungsmarker Involucrin (1:500, Sigma) sowie Keratin 1 und 10 (1:250, Progen) verglichen (Figur 6).

HaCaT Zellen [3] = assay: BrDU incorporation cell proliferation ELISA (A[450 nm])
From the text: Dabei wurde zunächst der Einfluss verschiedener Konzentrationen von 1-EBIO auf die Wachstumsrate von HaCaT Zellen in An- und Abwesenheit von Serum gemessen. Zu diesem Zweck wurden 1x10^4 HaCaT Zellen pro "Well" in einer 96-"Well" Platte 5 Tage lang in Keratinozytenwachstumsmedium (KGM) kultiviert, um den Zellzyklus zu synchronisieren, gefolgt von einer zweitägigen Inkubation verschiedener Konzentrationen an 1-EBIO in KGM (siehe Figuren 7 und 8) in Abwesenheit (Figur 7) und in Anwesenheit (Figur 8) von Serum. […] Als Lösungmittelkontrolle diente 1% DMSO in KGM. Die Zellproliferation wurde mit Hilfe des Einbaus von […] (BrDU) während der Zellteilung gemäß den Angaben des Herstellers gemessen ("The Cell Proliferation ELISA, BrDU, Roche). Der Einbau von BrDU wurde dabei durch die Bestimmung der Absorption bei 450 nm quantifiziert. In Figur 7 und 8 ist jeweils die Absorption (A[450nm]) als Maß für die Proliferationsrate auf der Y-Achse aufgetragen. Eine höhere Absorption spiegelt eine stärkere Proliferation wieder.

HaCaT-Keratinozyten [4] = assay: Proliferation by daily count of cells per well; details: subconfluent cells, n=3
Procedure: Um den Effekt der Inhibitoren des hIK1 Kanals, Clotrimazol und Charybdotoxin, zu untersuchen, wurde zu subkonfluent gewachsenen Zellen entweder 10 µM Clotrimazol, 200 nM Charybdotoxin (ChTx) oder 1 mM 1-EBIO zugegeben und jeden Tag die Anzahl Zellen pro well bestimmt.
Wie aus Figur 5 (n=3) ersichtlich ist, inhibierte die Zugabe sowohl eines der beiden Inhibitoren als auch die Zugabe des Aktivators von hIK1 die Proliferation, während das Wachstum der Kontrollzellen, denen keine Modulatoren zugesetzt worden waren, unbeeinträchtigt blieb.

CCn1c(=O)[nH]c2ccccc21 [1-EBIO, 1-Ethyl-2-benzimidazolinon]
transiente Depolarisierung nach ATP (HaCaT-Keratinozyten [1]; ATP 10 µM in the presence of 1-EBIO 1 mM): viel stärker war als unter Kontrollbedingungen
Anteil an K10-gefärbten Zellen (Differenzierung) (HaCaT-Zellen): signifikant reduzierten Anteil an gefärbten Zellen
Differenzierung (Involucrin, K1, K10) (HaCaT Zellen [2]): dosisabhängig inhibieren
Dosisabhängigkeit der Inhibition der seruminduzierten Proliferation (HaCaT Zellen [3]; 1-EBIO, various concentrations, with serum): dosisabhängig ist und den stärksten Effekt bei einer Konzentration von 1 mM zeigt
Zellproliferation ohne Serum (HaCaT Zellen [3]; KGM without serum, 2 days, 1-EBIO various concentrations, Zoxazolamin 1 mM): alleine nicht in der Lage sind, die Zellproliferation zu stimulieren
Apoptose / Morphologie der Zellen (HaCaT Zellen [3]; cells treated with the activators): keine Anzeichen von Apoptose
seruminduzierte Proliferation (HaCaT Zellen [3]; with 10% FCS, 2 days, 1-EBIO various concentrations, Zoxazolamin 1 mM): in der Lage die seruminduzierte Proliferation zu inhibieren
Proliferation (Anzahl Zellen pro well) (HaCaT-Keratinozyten [4]; 1-EBIO 1 mM): inhibierten die Proliferation vollständig; also recorded: vollständigen Inhibition

Nc1ncnc2c1ncn2[C@@H]1O[C@H](COP(=O)(O)OP(=O)(O)OP(=O)(O)O)[C@@H](O)[C@H]1O [ATP]
Reversibilität der Hyperpolarisierung (HaCaT-Keratinozyten [1]; 1 µM ATP, n=9): durch Auswaschen der Lösung rasch reversiblen Prozeß
Änderung des Membranpotentials (HaCaT-Keratinozyten [1]; ATP 1-1000 µM perfusion, perforated patch, current clamp, confluent monolayer): biphasische Änderung des Membranpotentials, die aus einer kurzen, transienten Depolarisierung gefolgt von einer deutlichen und langanhaltenden Hyperpolarisierung bestand
Dauer der Hyperpolarisierung nach ATP-Zugabe (HaCaT-Keratinozyten [1]; ATP ≥ 10 µM, added for 5 min): ≥ 5 min

[Ba+2] [Ba^2+]
Depolarisierung auf ein Plateau während der Behandlung mit ATP (HaCaT-Keratinozyten [1]): Keiner der anderen getesteten K^+-Kanalblocker (TEA, Ba^2+, und Verapamil) führten zu einer vergleichbaren Depolarisierung auf ein Plateau

Clc1ccccc1C(c1ccccc1)(c1ccccc1)n1ccnc1 [Clotrimazol]
Einfluß auf die Repolarisierung unter ATP (HaCaT-Keratinozyten [1]): Derselbe Effekt
Proliferation (Anzahl Zellen pro well) (HaCaT-Keratinozyten [4]; Clotrimazol 10 µM): inhibierten die Proliferation vollständig; also recorded: vollständigen Inhibition

CCn1c(=O)[nH]c2cc(Cl)c(Cl)cc21 [DCEBIO, 5,6-dichloro-1-ethyl-1,3-dihydro-2H-benzimidazol-2-on]
Stärke der Depolarisation relativ zu 1-EBIO (HaCaT-Keratinozyten [1]; HaCaT Zellen, relative to 1-EBIO): 300-1000 fach

NCCc1c[nH]cn1 [Histamin]
elektrophysiologische Antwort im Vergleich zu ATP (HaCaT-Keratinozyten [1]; Histamin 100 µM, n=4): quantitativ und kinetisch praktisch identische Antwort

O=P(O)(O)O[C@@H]1[C@H](O)[C@H](O)[C@@H](OP(=O)(O)O)[C@H](OP(=O)(O)O)[C@H]1O [IP3]
Spannungsänderung nach Freisetzung von IP3 (HaCaT-Keratinozyten [1]; whole-cell, caged-IP3 10-100 µM, UV flash photolysis, n=7): schnellen, transienten Depolarisierung, gefolgt von einer Hyperpolarisierung

CCCCCCCCCCCCCC(=O)O[C@@H]1[C@@H](C)[C@@]2(O)[C@@H](C=C(CO)C[C@]3(O)C(=O)C(C)=C[C@@H]23)[C@@H]2C(C)(C)[C@]12OC(C)=O [PMA]
Membranpotential (langsame Depolarisierung auf) (HaCaT-Keratinozyten [1]): -32 ± 2 mV
Einfluß auf den Effekt von ATP (HaCaT-Keratinozyten [1]; PMA 60 ng/µl, n=4): beeinflußte jedoch nicht den Effekt von ATP

CC[N+](CC)(CC)CC [TEA]
Depolarisierung auf ein Plateau während der Behandlung mit ATP (HaCaT-Keratinozyten [1]): Keiner der anderen getesteten K^+-Kanalblocker (TEA, Ba^2+, und Verapamil) führten zu einer vergleichbaren Depolarisierung auf ein Plateau

Bradykinin (RPPGFSPFR; Bradykinin; UniProt P01042 381-389, looked up)
elektrophysiologische Antwort im Vergleich zu ATP (HaCaT-Keratinozyten [1]; Bradykinin 10 µM, n=3): quantitativ und kinetisch praktisch identische Antwort

Calphostin C
Einfluß auf die ATP-vermittelte Spannungsänderung (HaCaT-Keratinozyten [1]; Calphostin C 50 nM): beeinflußte jedoch ebenfalls nicht die ATP-vermittelte Spannungsänderung
Membranpotential (schwache Hyperpolarisierung auf) (HaCaT-Keratinozyten [1]; Calphostin C 50 nM): -58 ± 3 mV

Charybdotoxin
Einfluß auf die bestehende ATP-vermittelte Hyperpolarisierung (HaCaT-Keratinozyten [1]; ChTx 100 nM added after ATP, ATP still present, n=2): vollständige Umkehrung der Hyperpolarisierung
Einfluß auf die Repolarisierung unter ATP (HaCaT-Keratinozyten [1]; ChTx 100 nM before ATP, n=4): verhinderte ChTx die Repolarisierung vollständig
Einfluß auf die ATP-vermittelte Hyperpolarisierung (HaCaT-Keratinozyten [1]; ChTx 10-100 nM before ATP, n=15): verhinderte eine Hyperpolarisierung
Inhibition der ATP-vermittelten Hyperpolarisierung (HaCaT-Keratinozyten [1]; various concentrations, added before ATP): dosisabhängige Inhibition der ATP-vermittelten Hyperpolarisierung
Proliferation (Anzahl Zellen pro well) (HaCaT-Keratinozyten [4]; Charybdotoxin 200 nM): die Proliferation verlangsamte; also recorded: nur verlangsamtes Wachstum

From patent publication EP1345618B1, “CHLORZOXAZONE FOR THE TREATMENT OF PSORIASIS” (Switch Biotech Aktiengesellschaft, priority 2000, dated 2002)
